Laboratory results published in US20060142247A1, “Tricyclic heterocycles” (priority 2004, published 2006).

Test system: HCT 116 cells
Experiment: Viability assay HCT 116 cells (CellTiter-Glo)
Format: cell-based
Settings: Homo sapiens, HCT-116, 120 h, HCT 116 human colon carcinoma cells, 5 days incubation, CellTiter-Glo luminescence
Outline: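 Human colon carcinoma cells seeded at 1000/well in RPMI 1640 with GlutaMAX, FCS and Pen/Strep, incubated 24 h at 37 °C, then treated with 10 concentrations (30 μM to 0.0015 μM, 1:3). After 5 days, viability read by CellTiter-Glo ATP luminescence.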

IC50 [nM]	SMILES
180	C=CCN1C(=O)C(C)(C)c2cc3nc(-c4n[nH]c5ccccc45)[nH]c3cc21 [Example 2, 5-Allyl-2-(1H-indazol-3-yl)-7,7-dimethyl-5,7-dihydro-3H-imidazo[4,5-f]indol-6-one]
100 to 1000	CCN1C(=O)C(C)(C)c2cc3nc(-c4n[nH]c5ccccc45)[nH]c3cc21 [Example 3, 5-Ethyl-2-(1H-indazol-3-yl)-7,7-dimethyl-5,7-dihydro-3H-imidazo[4,5-f]indol-6-one]
100 to 1000	CCCN1C(=O)C(C)(C)c2cc3nc(-c4n[nH]c5ccccc45)[nH]c3cc21 [Example 5, 2-(1H-indazol-3-yl)-7,7-dimethyl-5-propyl-5,7-dihydro-3H-imidazo[4,5-f]indol-6-one]
100 to 1000	CC(C)N1C(=O)C(C)(C)c2cc3nc(-c4n[nH]c5ccccc45)[nH]c3cc21 [Example 6, 2-(1H-indazol-3-yl)-5-isopropyl-7,7-dimethyl-5,7-dihydro-3H-imidazo[4,5-f]indol-6-one]
280	CC1(C)C(=O)N(CCCN2CCOCC2)c2cc3[nH]c(-c4n[nH]c5ccccc45)nc3cc21 [Example 7, 2-(1H-indazol-3-yl)-7,7-dimethyl-5-(3-morpholin-4-yl-propyl)-5,7-dihydro-3H-imidazo[4,5-f]indol-6-one]
100 to 1000	CC1(C)C(=O)Nc2cc3[nH]c(-c4n[nH]c5ccccc45)nc3cc21 [Example 8, 2-(1H-indazol-3-yl)-7,7-dimethyl-5,7-dihydro-3H-imidazo[4,5-f]indol-6-one]
100 to 1000	O=C1Nc2cc3nc(-c4n[nH]c5ccccc45)[nH]c3cc2C12CCCC2 [Example 9, 2-(1H-indazol-3-yl)-spiro[7,7-cyclopentan-5,7-dihydro-3H-imidazo[4,5-f]indol]-6-one]
100 to 1000	CC1C(=O)Nc2cc3[nH]c(-c4n[nH]c5ccccc45)nc3cc21 (stereo not drawn) [Example 11, 2-(1H-Indazol-3-yl)-7-methyl-5,7-dihydro-3H-imidazo[4,5-f]indol-6-one]
100 to 1000	CCC1C(=O)Nc2cc3nc(-c4[nH]nc5ccccc45)[nH]c3cc21 (stereo not drawn) [Example 13, 7-Ethyl-2-(1H-indazol-3-yl)-5,7-dihydro-3H-imidazo[4,5-f]indol-6-one]
100 to 1000	C=CCCN1C(=O)C(C)(C)c2cc3nc(-c4n[nH]c5ccccc45)[nH]c3cc21 [Example 15, 5-But-3-enyl-2-(1H-indazol-3-yl)-7,7-dimethyl-5,7-dihydro-3H-imidazo[4,5-f]indol-6-one]
100 to 1000	COCCOCCN1C(=O)C(C)(C)c2cc3nc(-c4n[nH]c5ccccc45)[nH]c3cc21 [Example 17, 2-(1H-Indazol-3-yl)-5-[2-(2-methoxy-ethoxy)-ethyl]-7,7-dimethyl-5,7-dihydro-3H-imidazo[4,5-f]indol-6-one]
100 to 1000	CC1(C)C(=O)N(CCCN2CCCCC2)c2cc3[nH]c(-c4n[nH]c5ccccc45)nc3cc21 [Example 19, 2-(1H-Indazol-3-yl)-7,7-dimethyl-5-(3-piperidin-1-yl-propyl)-5,7-dihydro-3H-imidazo[4,5-f]indol-6-one]
100 to 1000	CN(C)CCCN1C(=O)C(C)(C)c2cc3nc(-c4n[nH]c5ccccc45)[nH]c3cc21 [Example 21, 5-(3-Dimethylamino-propyl)-2-(1H-indazol-3-yl)-7,7-dimethyl-5,7-dihydro-3H-imidazo[4,5-f]indol-6-one]
100 to 1000	CCOC(=O)CN1C(=O)C(C)(C)c2cc3nc(-c4n[nH]c5ccccc45)[nH]c3cc21 [Example 23, [2-(1H-Indazol-3-yl)-7,7-dimethyl-6-oxo-6,7-dihydro-3H-imidazo[4,5-f]indol-5-yl]-acetic acid ethyl ester]
100 to 1000	CC1(C)C(=O)N(CC#N)c2cc3[nH]c(-c4n[nH]c5ccccc45)nc3cc21 [Example 24, [2-(1H-Indazol-3-yl)-7,7-dimethyl-6-oxo-6,7-dihydro-3H-imidazo[4,5-f]indol-5-yl]-acetonitrile]
100 to 1000	CC1(C)C(=O)N(Cc2ccccc2)c2cc3[nH]c(-c4n[nH]c5ccccc45)nc3cc21 [Example 26, 5-Benzyl-2-(1H-indazol-3-yl)-7,7-dimethyl-5,7-dihydro-3H-imidazo[4,5-f]indol-6-one]
100 to 1000	CC1(C)C(=O)N(Cc2ccc(S(C)(=O)=O)cc2)c2cc3[nH]c(-c4n[nH]c5ccccc45)nc3cc21 [Example 27, 2-(1H-Indazol-3-yl)-5-(4-methanesulfonyl-benzyl)-7,7-dimethyl-5,7-dihydro-3H-imidazol[4,5-f]indol-6-one]
100 to 1000	CC1(C)C(=O)N(CCO[Si](C)(C)C(C)(C)C)c2cc3[nH]c(-c4n[nH]c5ccccc45)nc3cc21 [Example 28, 5-[2-(tert-Butyl-dimethyl-silanyloxy)-ethyl]-2-(1H-indazol-3-yl)-7,7-dimethyl-5,7-dihydro-3H-imidazo[4,5-f]indol-6-one]
100 to 1000	CC1(C)C(=O)N(CCO)c2cc3[nH]c(-c4n[nH]c5ccccc45)nc3cc21 [Example 34, 5-(2-Hydroxy-ethyl)-2-(1H-indazol-3-yl)-7,7-dimethyl-5,7-dihydro-3H-imidazo[4,5-f]indol-6-one]
100 to 1000	CC1(C)C(=O)N(CC(O)CO)c2cc3[nH]c(-c4n[nH]c5ccccc45)nc3cc21 (stereo not drawn) [Example 35, 5-(2,3-Dihydroxy-propyl)-2-(1H-indazol-3-yl)-7,7-dimethyl-5,7-dihydro-3H-imidazo [4,5-f]indol-6-one]
1000 to 10000	CC1(C)C(=O)N(CC(=O)O)c2cc3[nH]c(-c4n[nH]c5ccccc45)nc3cc21 [Example 36, [2-(1H-Indazol-3-yl)-7,7-dimethyl-6-oxo-6,7-dihydro-3H-imidazo[4,5-f]indol-5-yl]-acetic acid]
100 to 1000	CC1(C)C(=O)N(CC(N)=O)c2cc3[nH]c(-c4n[nH]c5ccccc45)nc3cc21 [Example 37, 2-[2-(1H-Indazol-3-yl)-7,7-dimethyl-6-oxo-6,7-dihydro-3H-imidazo[4,5-f]indol-5-yl]-acetamide]
100 to 1000	CC1(C)C(=O)N(CC(=O)NCc2ccccc2)c2cc3[nH]c(-c4n[nH]c5ccccc45)nc3cc21 [Example 39, N-Benzyl-2-[2-(1H-indazol-3-yl)-7,7-dimethyl-6-oxo-6,7-dihydro-3H-imidazo[4,5-f]indol-5-yl]-acetamide]
100 to 1000	CC1(C)C(=O)N(CC(=O)N2CCOCC2)c2cc3[nH]c(-c4n[nH]c5ccccc45)nc3cc21 [Example 40, 2-(1H-Indazol-3-yl)-7,7-dimethyl-5-(2-morpholin-4-yl-2-oxo-ethyl)-5,7-dihydro-3H-imidazo[4,5-f]indol-6-one]
100 to 1000	CC1(C)C(=O)N(CC(=O)Nc2ccccc2)c2cc3[nH]c(-c4n[nH]c5ccccc45)nc3cc21 [Example 43, 2-[2-(1H-Indazol-3-yl)-7,7-dimethyl-6-oxo-6,7-dihydro-3H-imidazo[4,5-f]indol-5-yl]-N-phenyl-acetamide]
1000 to 10000	CC1(C)C(=O)N(CC(=O)NO)c2cc3[nH]c(-c4n[nH]c5ccccc45)nc3cc21 [Example 49, N-Hydroxy-2-[2-(1H-indazol-3-yl)-7,7-dimethyl-6-oxo-6,7-dihydro-3H-imidazo[4,5-f]indol-5-yl]-acetamide]
100 to 1000	CC1(C)C(=O)N(CCN)c2cc3[nH]c(-c4n[nH]c5ccccc45)nc3cc21 [Example 52, 5-(2-Amino-ethyl)-2-(1H-indazol-3-yl)-7,7-dimethyl-5,7-dihydro-3H-imidazo[4,5-f]indol-6-one]
